We go through five compounds from ChEMBL document CHEMBL1146922, “A novel ketone derivative of artemisinin biotransformed by Streptomyces griseus ATCC 13273” (Bioorg Med Chem Lett, 2006).

The test system of the test is Plasmodium falciparum. Description: Antimicrobial activity against Plasmodium falciparum FCC1/HN. The format is functional, organism-based.
[1] abbreviates: Plasmodium falciparum, FCC1/HN, read-out: IC50.

SMILES strings stand for the structures. Converted amounts (≈) assume the structure as drawn.

For orientation: IC50 means the concentration needed to halve the response being measured. As for `C[C@@H]1[C@H](O)C[C@H]2[C@@H](C)C(=O)O[C@@H]3O[C@]4(C)CC[C@@H]1C32OO4`, under setting [1], the IC50 was 0.0346 µg/mL (≈ 0.116 µM).
With `C[C@@H]1CC[C@H]2[C@@H](C)C(=O)O[C@@H]3O[C@@]4(C)OC32[C@H]1C[C@H]4O`, the IC50 result is given as “Not Active”.
Consider `C[C@@H]1C(=O)C[C@H]2[C@@H](C)C(=O)O[C@@H]3O[C@]4(C)CC[C@@H]1C32OO4`, for which the IC50 under setting [1] was determined as 0.0257 µg/mL (≈ 0.0867 µM).
Consider `C[C@@H]1[C@@H](O)C[C@H]2[C@@H](C)C(=O)O[C@@H]3O[C@]4(C)CC[C@@H]1C32OO4`, for which the IC50 under setting [1] was 0.0293 µg/mL (≈ 0.0982 µM).
The same measure, in the same setting: with `C[C@@H]1CC[C@H]2[C@@H](C)C(=O)O[C@@H]3O[C@@]4(C)CC[C@@H]1[C@]32OO4` [ARTEMISININ] the figure was 0.0031 µg/mL (≈ 0.011 µM).
